Here are results for four compounds from patent US7381743B2, “Macrocycles for the treatment of cancer” (Leibniz-Institut Fuer Pflanzenbiochemie (IPB), priority 2003, dated 2008).

SMILES strings stand for the structures. Where two headings read alike, the source gives them in different places.

Assay type in all cases: cell-based
In one experiment the test system is MCF7 breast cancer. Briefly: Proliferation assay (acidic phosphatase), MCF7. The note with it: Homo sapiens, read-out: Proliferation assay GI50, IC-50, MCF7 breast cancer.
The subject of a further experiment is A 549 lung cancer. Briefly: Proliferation assay (acidic phosphatase), A 549. The note with it: Homo sapiens, A549, 120 h, read-out: Proliferation assay GI50, IC-50, A 549 lung cancer. The method, then:
(§1) Proliferation assay GI50: acidic phosphatase, incubation period 5 days, IC-50 (μM)

Another experiment has as its system L 929 mouse fibroblasts. The experiment is described as follows: Proliferation assay (acidic phosphatase), L 929. The note with it: L929, 120 h, read-out: Proliferation assay GI50, IC-50, L 929 mouse fibroblasts. As to the method:
as §1

Setting [1] is: acidic phosphatase, incubation period 5 days.

With `C/C1=C/C[C@@H](/C(C)=C/c2csc(C)n2)OC(=O)CS(=O)(=O)C(C)(C)C(=O)[C@H](C)[C@@H](O)[C@@H](C)CCC1` [MC-C5, (7R,8R,9S,13Z)-8-Hydroxy-5,5,7,9,13-pentamethyl-16-[(IE)-1-methyl-2-(2-methyl-thiazol-4-yl)-vinyl]-4,4-dioxo-1-oxa-4-thia-cyclohexadec-13-en-2,6-dion], in the experiment on MCF7 breast cancer (MCF7, 120 h), the IC50 was over 10000 nM.

`C/C1=C/C[C@@H](/C(C)=C/c2csc(C)n2)OC(=O)CSC(C)(C)C(=O)[C@H](C)[C@@H](O)[C@@H](C)CCC1` [MC54690, (7R,8S,9S,13Z,16S)-8-hydroxy-5,5,7,9,13-pentamethyl-16-[(E)-1-methyl-2-(2-methyl-1,3-thiazol-4-yl)vinyl]-1-oxa-4-thiacyclohexadec-13-ene-2,6-dione]: the IC50 with A 549 lung cancer stood at 9 nM; in the experiment on L 929 mouse fibroblasts, 274 nM; in the experiment on MCF7 breast cancer (MCF7, 120 h), 45 nM.

Turning to `C/C1=C/C[C@@H](/C(C)=C/c2cccc(C)n2)OC(=O)CSC(C)(C)C(=O)[C@H](C)[C@@H](O)/C(C)=C/CC1` [MC54849, (7R,8R,9E,13Z)-8-Hydroxy-5,5,7,9,13-pentamethyl-16-[(1E)-1-methyl-2-(6-methyl-pyridin-2-yl)-vinyl]-1-oxa-4-thia-cyclohexadec-9,13-dien-2,6-dion], in the experiment on MCF7 breast cancer (MCF7, 96 h), the IC50 was 531 nM.

For the compound `CC(=O)O[C@H]1C(=O)[C@@]2(C)[C@H]([C@H](OC(=O)c3ccccc3)[C@]3(O)C[C@H](OC(=O)[C@H](O)[C@@H](NC(=O)c4ccccc4)c4ccccc4)C(C)=C1C3(C)C)[C@]1(OC(C)=O)CO[C@@H]1C[C@@H]2O` [Taxol, Paclitaxel, reference compound], the IC50 with A 549 lung cancer (setting [1]) was 6 nM; in the experiment with L 929 mouse fibroblasts (setting [1]) it was 270 nM; in the experiment with MCF7 breast cancer (MCF7, 120 h, acidic phosphatase, incubation period 5 days), 3 nM.
